Experimental data: patent US20090318446A1, “4-(1H-Indol-3-yl)-Pyrimidin-2-Ylamine Derivatives and Their Use in Therapy” (Cyclacel Limited, priority 2005, published 2009)
Like-named read-outs stand apart in the source and are kept apart here.

Legend:
CDK1/cyclin B = CDK1/cyclin B (Homo sapiens, UniProt P06493); test: Kinase assay CDK1/cyclin B; assay type: biochemical; conditions: Table 2; read-out: Kinase inhibition IC50 CDK1B
Protocol: (§1) The compounds from the examples above were investigated for their ability to inhibit the enzymatic activity of various protein kinases. This was achieved by measurement of incorporation of radioactive phosphate from ATP into appropriate polypeptide substrates. Recombinant protein kinases and kinase complexes were produced or obtained commercially. Assays were performed using 96-well plates and appropriate assay buffers (typically 25 mM β-glycerophosphate, 20 mM MOPS, 5 mM EGTA, 1 mM DTT, 1 mM […], pH 7.4), into which were added 2-4 μg of active enzyme with appropriate substrates. The reactions were initiated by addition of Mg/ATP mix (15 mM MgCl2+100 μM ATP with 30-50 kBq per well of [γ-^32P]-ATP) and mixtures incubated as required at 30° C. Reactions were stopped on ice, followed by filtration through p81 filterplates or GF/C filterplates (Whatman Polyfiltronics, Kent, UK). After washing 3 times with 75 mM aq orthophosphoric acid, plates were dried, scintillant added and incorporated radioactivity measured in a scintillation counter (TopCount, Packard Instruments, Pangbourne, Berks, UK). Compounds for kinase assay were made up as 10 mM stocks in DMSO and diluted into 10% DMSO in assay buffer. Data was analysed using curve-fitting software (GraphPad Prism version 3.00 for Windows, GraphPad Software, San Diego Calif. USA) to determine IC50 values (concentration of test compound which inhibits kinase activity by 50%).

Drosophila Aurora A = Drosophila Aurora A (Drosophila melanogaster, UniProt Q9VGF9); test: Aurora A kinase assay (Drosophila enzyme); assay type: biochemical; conditions: Table 3, values marked *: Drosophila Aurora A; read-out: Kinase inhibition Aurora A (*Drosophila Aurora A)
Protocol: as §1

GSK-3β = GSK-3β (Oryctolagus cuniculus, UniProt G1T8E2); test: GSK-3β kinase assay; assay type: biochemical, rabbit; conditions: Table 2; read-out: Kinase inhibition IC50 GSK3
Protocol: GSK-3 was obtained from New England Biolabs (UK) Ltd., Hitchin, Herts. The recombinant enzyme was isolated from a strain of E. coli that carries a clone expressing GSK-3β derived from a rabbit skeletal muscle cDNA library [Wang, Q. M.; Fiol, C. J.; DePaoli-Roach, A. A.; Roach, P. J. J. Biol. Chem., 1994, 269, 14566]. Inhibition of GSK-3 function was assessed by measurement of phosphorylation of CREB phosphopeptide KRREILSRRPphosphoSYR in the presence of test compounds. Using a 96-well assay format, GSK3 (7.5 U) was incubated for 30 min at 30° C. in a total volume of 25 μL in 20 mM MOPS pH 7.2, 25 mM β-glycerophosphate, 5 mM EGTA, 1 mM DTT, 1 mM […], 40 μM CREB peptide, 15 mM MgCl2 and 100 μM ATP (containing 0.25 μCi [γ-^32P]-ATP) in the presence of varying concentrations of test compound. The samples were transferred to 96-well p81 filter plates (Whatman Polyfiltronics, Kent, UK), and the plates were washed 4 times with 200 μL/well of 75 mM aq orthophosphoric acid. Scintillation liquid (50 μL) was added to each well, and incorporated radioactivity for each sample was determined using a scintillation counter (TopCount, Packard Instruments, Pangbourne, Berks, UK).

CDK4/cyclin D1 = CDK4/cyclin D1 (Homo sapiens, UniProt P11802); test: Kinase assay CDK4/cyclin D1; assay type: biochemical
Protocol: as §1

CDK2/cyclin A = CDK2/cyclin A (Homo sapiens, UniProt P24941); test: Kinase assay CDK2/cyclin A; assay type: biochemical; conditions: Table 2; read-out: Kinase inhibition IC50 CDK2A
Protocol: as §1

[1] = Table 2, read-out: Kinase inhibition IC50 CDK4D1
[2] = Table 3, read-out: Kinase inhibition CDK4D1

Sequence of CDK1/cyclin B (P06493 whole entry, species assumed): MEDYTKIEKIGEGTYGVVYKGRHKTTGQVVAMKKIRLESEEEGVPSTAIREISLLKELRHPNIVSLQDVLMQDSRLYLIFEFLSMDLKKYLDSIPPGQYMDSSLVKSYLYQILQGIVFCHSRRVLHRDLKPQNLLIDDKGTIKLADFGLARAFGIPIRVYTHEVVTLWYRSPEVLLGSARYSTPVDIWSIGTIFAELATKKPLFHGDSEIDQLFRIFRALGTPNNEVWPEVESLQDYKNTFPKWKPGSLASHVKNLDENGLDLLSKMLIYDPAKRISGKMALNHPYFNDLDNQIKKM
Sequence of CDK1/cyclin B (P14635 whole entry partner, species assumed): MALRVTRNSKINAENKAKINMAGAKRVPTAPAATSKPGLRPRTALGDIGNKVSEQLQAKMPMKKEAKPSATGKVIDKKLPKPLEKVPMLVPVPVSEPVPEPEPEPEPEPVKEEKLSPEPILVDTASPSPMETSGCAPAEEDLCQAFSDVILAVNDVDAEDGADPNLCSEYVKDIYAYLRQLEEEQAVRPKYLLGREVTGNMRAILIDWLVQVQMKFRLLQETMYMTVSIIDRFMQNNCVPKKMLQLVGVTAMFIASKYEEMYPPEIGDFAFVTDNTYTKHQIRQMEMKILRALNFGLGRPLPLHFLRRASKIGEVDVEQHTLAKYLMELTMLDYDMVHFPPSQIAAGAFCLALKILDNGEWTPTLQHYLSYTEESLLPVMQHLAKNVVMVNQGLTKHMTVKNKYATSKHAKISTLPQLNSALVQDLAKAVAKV
Sequence of Drosophila Aurora A (Q9VGF9 entry or part of it): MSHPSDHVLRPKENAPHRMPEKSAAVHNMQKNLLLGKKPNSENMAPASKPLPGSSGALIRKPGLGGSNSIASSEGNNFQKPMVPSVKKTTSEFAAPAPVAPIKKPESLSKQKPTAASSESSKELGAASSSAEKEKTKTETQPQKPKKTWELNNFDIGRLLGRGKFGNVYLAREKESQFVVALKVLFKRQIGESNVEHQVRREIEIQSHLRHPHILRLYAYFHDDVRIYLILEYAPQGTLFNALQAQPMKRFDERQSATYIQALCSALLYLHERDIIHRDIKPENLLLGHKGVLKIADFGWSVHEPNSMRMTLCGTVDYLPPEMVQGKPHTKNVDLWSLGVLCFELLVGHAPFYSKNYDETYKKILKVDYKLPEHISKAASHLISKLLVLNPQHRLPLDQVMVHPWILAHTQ
Sequence of CDK4/cyclin D1 (P11802 whole entry, species assumed): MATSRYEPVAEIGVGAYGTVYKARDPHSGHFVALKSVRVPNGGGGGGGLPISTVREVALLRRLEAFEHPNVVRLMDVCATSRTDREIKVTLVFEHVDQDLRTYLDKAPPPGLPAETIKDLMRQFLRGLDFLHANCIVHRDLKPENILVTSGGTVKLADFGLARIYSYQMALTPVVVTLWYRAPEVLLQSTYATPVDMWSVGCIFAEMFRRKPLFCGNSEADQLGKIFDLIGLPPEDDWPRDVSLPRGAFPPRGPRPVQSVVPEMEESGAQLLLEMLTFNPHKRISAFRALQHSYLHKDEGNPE
Sequence of CDK4/cyclin D1 (P24385 whole entry partner, species assumed): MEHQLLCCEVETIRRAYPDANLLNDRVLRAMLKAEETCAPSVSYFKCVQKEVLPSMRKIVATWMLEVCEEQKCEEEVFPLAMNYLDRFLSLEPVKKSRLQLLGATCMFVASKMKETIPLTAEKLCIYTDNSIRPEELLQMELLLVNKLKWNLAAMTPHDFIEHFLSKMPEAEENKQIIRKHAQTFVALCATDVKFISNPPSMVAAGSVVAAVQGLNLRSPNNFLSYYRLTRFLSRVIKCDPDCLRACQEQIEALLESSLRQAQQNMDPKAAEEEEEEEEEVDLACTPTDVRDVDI
Sequence of GSK-3β (G1T8E2 1-432): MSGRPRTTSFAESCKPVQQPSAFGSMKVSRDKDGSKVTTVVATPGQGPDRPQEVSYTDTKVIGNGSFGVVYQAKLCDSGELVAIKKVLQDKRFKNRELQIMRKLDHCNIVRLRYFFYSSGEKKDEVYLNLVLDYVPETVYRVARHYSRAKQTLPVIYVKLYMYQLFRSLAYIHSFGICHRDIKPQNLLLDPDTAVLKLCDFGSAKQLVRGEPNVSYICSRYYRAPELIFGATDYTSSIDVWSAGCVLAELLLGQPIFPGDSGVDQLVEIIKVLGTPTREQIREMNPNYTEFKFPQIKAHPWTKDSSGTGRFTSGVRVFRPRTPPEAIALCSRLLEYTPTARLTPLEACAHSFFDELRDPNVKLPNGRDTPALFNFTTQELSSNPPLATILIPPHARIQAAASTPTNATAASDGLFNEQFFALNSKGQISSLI

With `O=[N+]([O-])c1cccc(Nc2nccc(-c3c[nH]c4ccccc34)n2)c1` [Compound 2, [4-(1H-Indol-3-yl)-pyrimidin-2-yl]-(3-nitro-phenyl)-amine] the IC50 (CDK1/cyclin B) was greater than 100000 nM, the IC50 (Drosophila Aurora A) was 274 nM and the IC50 (GSK-3β) was 2100 nM. The IC50 (CDK4/cyclin D1; [1]) was greater than 100000 nM and the IC50 (CDK2/cyclin A) was greater than 100000 nM.
Compound `Fc1ccc(Nc2nccc(-c3c[nH]c4ccccc34)n2)cc1` [Compound 3, (4-Fluoro-phenyl)-[4-(1H-indol-3-yl)-pyrimidin-2-yl]-amine] has an IC50 (CDK1/cyclin B) greater than 100000 nM, an IC50 (Drosophila Aurora A) of 1050 nM and an IC50 (GSK-3β) of 8700 nM. For the same compound, the IC50 (CDK4/cyclin D1; [1]) was greater than 100000 nM and the IC50 (CDK2/cyclin A) was greater than 100000 nM.
With `COc1ccc(Nc2nccc(-c3c[nH]c4ccccc34)n2)cn1` [Compound 4, [4-(1H-Indol-3-yl)-pyrimidin-2-yl]-(6-methoxy-pyridin-3-yl)-amine] the IC50 (CDK1/cyclin B) was 1900 nM, the IC50 (Drosophila Aurora A) was 243 nM and the IC50 (GSK-3β) was 1600 nM. The IC50 (CDK4/cyclin D1; [1]) was 1000 nM, the IC50 (CDK4/cyclin D1; [2]) was 1000 nM and the IC50 (CDK2/cyclin A) was 2600 nM.
Compound `CC(=O)N1CCN(c2ccc(Nc3nccc(-c4c[nH]c5ccccc45)n3)cc2)CC1` [Compound 6, 4-(1H-indol-3-yl)-N-(4-acetylpiperazin-1-ylphenyl)pyrimidin-2-amine] has an IC50 (CDK4/cyclin D1; [2]) of 4390 nM.
`c1ccc2c(-c3ccnc(Nc4ccc(N5CCNCC5)cc4)n3)c[nH]c2c1` [Compound 7, 4-(1H-indol-3-yl)-N-(4-piperazin-1-ylphenyl)pyrimidin-2-amine] was tested, and the IC50 (CDK4/cyclin D1; [2]) was 426 nM.
With `CC1CN(c2ccc(Nc3nccc(-c4c[nH]c5ccccc45)n3)cc2)CC(C)O1` (centres unmarked) [Compound 9] the IC50 (CDK4/cyclin D1; [2]) was 5460 nM.
Work on `CN(C)c1ccc(Nc2nccc(-c3c[nH]c4ccccc34)n2)cc1` [Compound 10, N′-[4-(1H-indol-3-yl)pyrimidin-2-yl]-N,N-dimethylbenzene-1,4-diamine] yielded an IC50 (CDK4/cyclin D1; [2]) of 5780 nM.
